The test system of experiment [1] is HEK293. The experiment is described as follows: NOD1 signaling inhibitors, primary screen, cell-based, luminescence, uHTS (AID 1578). It is filed as functional. The settings on record: Homo sapiens.
The subject of experiment [2] is HEK293. The experiment is described as follows: cells. The settings on record: Homo sapiens. It is filed as functional, cell-based.
For experiment [3], the system named is HEK293. The experiment is described as follows: cells. Format: functional, cell-based. The settings on record: Homo sapiens. The source holds these as a separate data set.
Experiment [4] deals with Nucleotide-binding oligomerization domain-containing protein 2 (Homo sapiens, UniProt Q9HC29). The experiment is described as follows: NOD2 signaling inhibitors, cell-based, luminescence, uHTS, HEK293 (AID 1566). Format: functional.
Experiment [5] concerns HEK293. The experiment can be described thus: NOD2 signaling inhibitors in MDP-stimulated cells, cell-based, uHTS, luminescence (AID 2001). Format: functional. The settings on record: Homo sapiens.
Experiment [6] concerns HEK293. The experiment is described as follows: cells. Format: functional, cell-based. The settings on record: Homo sapiens. This is another data set of the same source.
In experiment [7] the target is T1, Calpain-2 catalytic subunit (Sus scrofa, UniProt P43367).
T1 sequence (P43367 whole entry): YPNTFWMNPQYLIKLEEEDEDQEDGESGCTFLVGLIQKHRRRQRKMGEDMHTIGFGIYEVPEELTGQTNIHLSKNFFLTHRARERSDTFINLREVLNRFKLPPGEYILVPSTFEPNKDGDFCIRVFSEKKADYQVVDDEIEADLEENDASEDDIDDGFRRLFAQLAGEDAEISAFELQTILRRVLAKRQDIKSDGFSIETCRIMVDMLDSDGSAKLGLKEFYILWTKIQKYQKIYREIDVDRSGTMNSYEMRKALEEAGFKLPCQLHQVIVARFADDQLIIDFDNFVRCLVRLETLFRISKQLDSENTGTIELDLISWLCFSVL
The experiment is described as follows: pig calpain II inhibitor potency, dose response, biochemical, fluorogenic peptide substrate (AID 1420). It is filed as functional.

Experiment [8] concerns the target T2, Protein Rev (Human immunodeficiency virus type 1 group M subtype B (isolate HXB2)(HIV-1), UniProt P04618).
T2 sequence (P04618 whole entry): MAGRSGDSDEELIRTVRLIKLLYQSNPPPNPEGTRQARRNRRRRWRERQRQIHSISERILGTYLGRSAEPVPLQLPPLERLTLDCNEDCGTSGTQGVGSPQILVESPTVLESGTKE
The experiment can be described thus: inhibitors of Rev binding to RRE RNA, dose response, biochemical, fluorescence polarization, HIV-1 (AID 434976). Details: species or system Human immunodeficiency virus 1. In general terms: Polarisation of emitted light reports the rotation of a fluorescent probe.

In experiment [9] the target is T3, Female germline-specific tumor suppressor gld-1 (Caenorhabditis elegans, UniProt Q17339).
T3 sequence (Q17339 whole entry): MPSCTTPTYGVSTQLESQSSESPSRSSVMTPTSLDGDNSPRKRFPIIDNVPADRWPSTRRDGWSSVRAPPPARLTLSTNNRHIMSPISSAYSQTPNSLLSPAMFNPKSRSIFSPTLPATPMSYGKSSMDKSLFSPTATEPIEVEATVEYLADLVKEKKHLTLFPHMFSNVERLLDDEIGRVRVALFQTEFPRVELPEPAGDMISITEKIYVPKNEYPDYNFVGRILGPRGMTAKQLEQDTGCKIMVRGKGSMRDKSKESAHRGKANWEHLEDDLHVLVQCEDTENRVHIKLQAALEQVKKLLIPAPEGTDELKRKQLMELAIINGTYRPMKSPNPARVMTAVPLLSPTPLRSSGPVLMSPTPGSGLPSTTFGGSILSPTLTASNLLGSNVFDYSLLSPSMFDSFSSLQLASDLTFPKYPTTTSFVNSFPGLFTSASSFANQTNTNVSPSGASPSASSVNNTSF
The experiment is described as follows: inhibitors of GLD-1 binding to TGE RNA, dose response, biochemical, fluorescence polarization, C. elegans (AID 2802).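 Also: fluorescence polarization of labeled TGE RNA bound by purified gld-1 protein.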

Experiment [10] deals with T4, Polyadenylate-binding protein 1 (Homo sapiens, UniProt P11940). The experiment can be described thus: PABP1 MLLE–PAM2 interaction inhibitors, dose response, miRNA deadenylation inhibitor project, biochemical, fluorescence polarization, Cy5-PAM2 peptide, secondary (AID 602260). Format: functional. The settings on record: read-out: IC50_Mean.
Experiment [11] deals with T4, Polyadenylate-binding protein 1. The experiment is described as follows: PABP1 MLLE–PAM2 binding inhibitor potency, dose response, biochemical, fluorescence polarization, FITC-PAM2 peptide (AID 602259). The settings on record: read-out: IC50_Mean. Format: functional.
Experiment [12] deals with T5, Corticotropin-releasing factor receptor 2/Corticotropin-releasing factor-binding protein (Homo sapiens, UniProt P24387+Q13324).
T5 sequence (Q13324 whole entry): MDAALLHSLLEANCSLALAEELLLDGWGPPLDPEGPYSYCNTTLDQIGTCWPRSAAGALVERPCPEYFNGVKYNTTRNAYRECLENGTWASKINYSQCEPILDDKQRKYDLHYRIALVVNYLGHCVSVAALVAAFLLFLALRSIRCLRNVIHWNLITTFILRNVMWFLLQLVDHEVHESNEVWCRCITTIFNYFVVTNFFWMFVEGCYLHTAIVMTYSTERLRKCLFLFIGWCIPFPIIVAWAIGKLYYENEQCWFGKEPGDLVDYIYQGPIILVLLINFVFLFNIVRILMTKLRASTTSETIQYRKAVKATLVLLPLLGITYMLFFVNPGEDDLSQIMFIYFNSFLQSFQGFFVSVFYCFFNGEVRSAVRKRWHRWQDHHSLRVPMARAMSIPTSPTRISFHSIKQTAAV
T5 sequence (P24387 whole entry): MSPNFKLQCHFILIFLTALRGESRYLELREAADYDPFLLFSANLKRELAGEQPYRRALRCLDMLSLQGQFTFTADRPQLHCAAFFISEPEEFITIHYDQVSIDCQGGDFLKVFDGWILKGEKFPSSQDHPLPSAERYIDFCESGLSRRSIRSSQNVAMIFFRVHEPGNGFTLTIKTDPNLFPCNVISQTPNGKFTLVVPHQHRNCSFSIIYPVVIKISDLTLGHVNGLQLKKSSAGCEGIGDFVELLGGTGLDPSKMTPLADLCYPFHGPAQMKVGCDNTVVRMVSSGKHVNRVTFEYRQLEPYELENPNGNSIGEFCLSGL
The experiment is described as follows: Dose Response confirmation of uHTS hits for small molecule antagonists of the CRF-binding protein and CRF-R2 receptor complex. It is filed as functional. The settings on record: read-out: IC50_Mean.

Experiment [13] concerns the target T5, Corticotropin-releasing factor receptor 2/Corticotropin-releasing factor-binding protein. The experiment is described as follows: activators of CRF receptor 2 with binding protein – uHTS hits, confirmation (AID 602473). The settings on record: read-out: EC50_Mean. It is filed as functional.
Experiment [14] has as its target T6, Kappa-type opioid receptor (Homo sapiens, UniProt P41145). Format: functional.
In experiment [15] the target is Beta-galactosidase (Escherichia coli, UniProt Q8VNN2). Format: functional.
The target in experiment [16] is T6, Kappa-type opioid receptor. It is filed as functional. This is another data set of the same source.
In experiment [17] the target is Heat shock protein HSP 90-alpha (Homo sapiens, UniProt P07900). Format: functional, organism-based.
Experiment [18] addresses DNA damage-inducible transcript 3 protein (Mus musculus, UniProt P35639). Format: functional, Cricetulus griseus.
Experiment [19] deals with T7, X-box-binding protein 1 (Homo sapiens, UniProt P17861).
T7 sequence (P17861 whole entry): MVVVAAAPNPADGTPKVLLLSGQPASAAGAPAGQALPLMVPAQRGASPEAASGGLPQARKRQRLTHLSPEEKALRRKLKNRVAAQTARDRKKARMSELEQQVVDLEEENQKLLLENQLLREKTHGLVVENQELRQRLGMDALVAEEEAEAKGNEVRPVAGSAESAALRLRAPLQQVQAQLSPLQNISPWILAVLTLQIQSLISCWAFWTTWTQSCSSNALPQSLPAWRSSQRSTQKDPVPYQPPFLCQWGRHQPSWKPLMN
Format: functional, Cricetulus griseus.

Experiment [20] deals with T8, Cytochrome P450 1A2 (Homo sapiens, UniProt P05177).
T8 sequence (P05177 whole entry): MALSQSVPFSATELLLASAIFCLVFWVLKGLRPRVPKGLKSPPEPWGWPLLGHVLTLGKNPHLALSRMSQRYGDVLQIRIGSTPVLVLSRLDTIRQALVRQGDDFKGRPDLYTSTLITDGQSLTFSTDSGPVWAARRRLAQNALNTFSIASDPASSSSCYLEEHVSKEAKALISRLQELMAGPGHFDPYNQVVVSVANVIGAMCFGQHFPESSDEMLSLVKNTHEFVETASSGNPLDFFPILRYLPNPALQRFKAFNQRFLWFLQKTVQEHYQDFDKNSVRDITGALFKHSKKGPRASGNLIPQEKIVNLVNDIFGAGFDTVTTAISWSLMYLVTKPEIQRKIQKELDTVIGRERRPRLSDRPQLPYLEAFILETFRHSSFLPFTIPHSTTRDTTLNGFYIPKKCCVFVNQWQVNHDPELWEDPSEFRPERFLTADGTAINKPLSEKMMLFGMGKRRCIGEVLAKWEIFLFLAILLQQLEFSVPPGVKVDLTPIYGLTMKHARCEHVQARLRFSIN

Experiment [21] deals with Cytochrome P450 2C9 (Homo sapiens, UniProt P11712).
The test system of experiment [22] is Streptococcus sp. 'group A'. The experiment is described as follows: growth inhibition of control SK(-) GAS strain, dose response, counter-screen for streptokinase expression inhibitor project, luminescence, kanamycin, BacTiterGlo, confirmation (AID 1900). It is filed as functional, organism-based.
The target of experiment [23] is T9, Streptokinase A (Streptococcus pyogenes serotype M1, UniProt P10520).
T9 sequence (P10520 whole entry): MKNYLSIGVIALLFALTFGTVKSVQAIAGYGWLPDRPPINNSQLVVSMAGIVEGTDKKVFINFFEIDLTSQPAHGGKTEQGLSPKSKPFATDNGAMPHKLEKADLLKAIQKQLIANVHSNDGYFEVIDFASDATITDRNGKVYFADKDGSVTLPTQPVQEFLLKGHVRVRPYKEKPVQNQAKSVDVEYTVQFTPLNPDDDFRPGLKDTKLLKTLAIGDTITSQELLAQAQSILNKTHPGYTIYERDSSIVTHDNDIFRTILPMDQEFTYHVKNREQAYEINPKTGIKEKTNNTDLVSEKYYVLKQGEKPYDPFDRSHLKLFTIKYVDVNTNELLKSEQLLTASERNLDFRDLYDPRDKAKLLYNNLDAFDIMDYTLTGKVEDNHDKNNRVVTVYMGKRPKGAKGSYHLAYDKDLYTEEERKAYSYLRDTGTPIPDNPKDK
The experiment is described as follows: S. pyogenes streptokinase expression inhibitors, potency, dose response, plasminogen activation absorbance, OD405 (AID 1914).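 Also: secreted streptokinase activity via plasminogen activation per viability signal from cell pellet.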 Format: functional, Streptococcus pyogenes M1 GAS.

The nature of experiment [24]: microbe, parasite or virus in culture. Format: functional. The settings on record: Mycobacterium tuberculosis.
The subject of experiment [25] is Streptococcus. The experiment can be described thus: Group A Streptococcus viability loss, dose response, counter-screen for streptokinase expression inhibitor project, luminescence, BacTiterGlo (AID 1915).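 Also: potency for reduction of bacterial viability or growth.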 Format: functional, organism-based.
The nature of experiment [26]: Luminescence Cell-Based Dose Retest to Confirm Inhibitors of Cancer Stem Cells. [Related pubchem assays (depositor defined):AID2717, AID2721]. Format: functional. The settings on record: Homo sapiens.
For experiment [27], the system named is INS1. The experiment is described as follows: beta cell apoptosis inhibitors, cytokine rescue, dose response, luminescence, retest (AID 449756).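 Also: cell death triggered by IL-1 beta plus TNF-alpha plus IFN-gamma mixture; protective hits raise ATP signal compared with cytokine alone wells.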 It is filed as functional, cell-based. The settings on record: Rattus norvegicus.

Molecules are shown by their SMILES. Active and inactive are the calls of the source.
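For Absolute IC50 (XBP1) in this document: confirmatory dose-response counter-screen serving a CHOP assay.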

T4 sequence (P11940 whole entry): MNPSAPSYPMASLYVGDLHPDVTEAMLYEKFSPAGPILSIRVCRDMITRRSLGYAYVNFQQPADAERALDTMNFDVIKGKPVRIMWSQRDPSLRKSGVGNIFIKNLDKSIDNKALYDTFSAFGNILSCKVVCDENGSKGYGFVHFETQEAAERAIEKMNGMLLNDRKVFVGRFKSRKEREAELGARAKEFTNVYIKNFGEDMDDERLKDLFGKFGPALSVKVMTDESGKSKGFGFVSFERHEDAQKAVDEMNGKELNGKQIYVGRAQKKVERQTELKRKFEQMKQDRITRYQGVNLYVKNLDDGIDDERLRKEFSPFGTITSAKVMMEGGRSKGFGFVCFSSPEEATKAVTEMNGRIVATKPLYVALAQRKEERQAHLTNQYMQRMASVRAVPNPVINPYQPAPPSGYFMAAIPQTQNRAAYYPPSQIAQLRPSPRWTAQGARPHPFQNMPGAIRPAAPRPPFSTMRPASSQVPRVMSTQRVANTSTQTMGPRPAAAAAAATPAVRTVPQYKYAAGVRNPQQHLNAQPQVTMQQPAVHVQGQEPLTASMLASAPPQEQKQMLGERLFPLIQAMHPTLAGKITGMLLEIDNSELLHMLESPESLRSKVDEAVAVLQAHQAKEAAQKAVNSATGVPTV
T6 sequence (P41145 whole entry): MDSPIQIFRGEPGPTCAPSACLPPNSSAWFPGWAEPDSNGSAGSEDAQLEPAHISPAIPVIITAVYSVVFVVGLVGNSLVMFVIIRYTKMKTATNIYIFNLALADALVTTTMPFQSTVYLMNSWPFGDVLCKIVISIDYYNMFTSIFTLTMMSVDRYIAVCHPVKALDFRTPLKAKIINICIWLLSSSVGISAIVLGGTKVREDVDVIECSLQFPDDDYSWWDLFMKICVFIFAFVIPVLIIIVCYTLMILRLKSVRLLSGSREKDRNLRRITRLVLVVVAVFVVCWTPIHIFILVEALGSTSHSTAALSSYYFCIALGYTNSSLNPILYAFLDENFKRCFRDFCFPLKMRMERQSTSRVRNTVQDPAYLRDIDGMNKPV
Chain of Nucleotide-binding oligomerization domain-containing protein 2 (Q9HC29 whole entry, the tested form may be a part): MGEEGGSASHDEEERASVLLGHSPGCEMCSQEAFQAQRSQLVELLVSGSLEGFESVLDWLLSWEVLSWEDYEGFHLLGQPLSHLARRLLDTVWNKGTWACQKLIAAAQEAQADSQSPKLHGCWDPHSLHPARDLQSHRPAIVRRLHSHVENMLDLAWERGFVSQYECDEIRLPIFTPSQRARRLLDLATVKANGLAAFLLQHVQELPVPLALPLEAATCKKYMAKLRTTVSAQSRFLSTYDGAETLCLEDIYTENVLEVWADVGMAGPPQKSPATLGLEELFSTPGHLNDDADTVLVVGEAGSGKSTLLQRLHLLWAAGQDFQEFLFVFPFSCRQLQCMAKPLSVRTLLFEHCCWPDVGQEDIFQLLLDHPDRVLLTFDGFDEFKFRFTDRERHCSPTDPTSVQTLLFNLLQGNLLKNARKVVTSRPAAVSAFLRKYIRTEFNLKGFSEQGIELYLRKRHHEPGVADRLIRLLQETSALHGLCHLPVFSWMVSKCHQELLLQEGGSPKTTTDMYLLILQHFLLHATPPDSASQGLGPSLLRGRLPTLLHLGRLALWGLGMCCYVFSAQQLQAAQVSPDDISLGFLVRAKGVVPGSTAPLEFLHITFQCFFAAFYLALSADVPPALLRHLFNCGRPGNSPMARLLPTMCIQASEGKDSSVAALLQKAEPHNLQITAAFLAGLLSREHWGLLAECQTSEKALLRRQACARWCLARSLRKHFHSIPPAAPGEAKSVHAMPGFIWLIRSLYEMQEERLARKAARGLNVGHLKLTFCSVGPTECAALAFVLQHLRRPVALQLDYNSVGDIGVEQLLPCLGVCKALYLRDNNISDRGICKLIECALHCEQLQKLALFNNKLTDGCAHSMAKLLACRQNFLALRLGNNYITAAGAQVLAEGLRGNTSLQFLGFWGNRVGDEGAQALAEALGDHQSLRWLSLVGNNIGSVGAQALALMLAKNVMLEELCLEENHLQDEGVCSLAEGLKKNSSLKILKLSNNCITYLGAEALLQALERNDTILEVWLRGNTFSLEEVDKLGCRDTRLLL
Chain of Beta-galactosidase (Q8VNN2 whole entry): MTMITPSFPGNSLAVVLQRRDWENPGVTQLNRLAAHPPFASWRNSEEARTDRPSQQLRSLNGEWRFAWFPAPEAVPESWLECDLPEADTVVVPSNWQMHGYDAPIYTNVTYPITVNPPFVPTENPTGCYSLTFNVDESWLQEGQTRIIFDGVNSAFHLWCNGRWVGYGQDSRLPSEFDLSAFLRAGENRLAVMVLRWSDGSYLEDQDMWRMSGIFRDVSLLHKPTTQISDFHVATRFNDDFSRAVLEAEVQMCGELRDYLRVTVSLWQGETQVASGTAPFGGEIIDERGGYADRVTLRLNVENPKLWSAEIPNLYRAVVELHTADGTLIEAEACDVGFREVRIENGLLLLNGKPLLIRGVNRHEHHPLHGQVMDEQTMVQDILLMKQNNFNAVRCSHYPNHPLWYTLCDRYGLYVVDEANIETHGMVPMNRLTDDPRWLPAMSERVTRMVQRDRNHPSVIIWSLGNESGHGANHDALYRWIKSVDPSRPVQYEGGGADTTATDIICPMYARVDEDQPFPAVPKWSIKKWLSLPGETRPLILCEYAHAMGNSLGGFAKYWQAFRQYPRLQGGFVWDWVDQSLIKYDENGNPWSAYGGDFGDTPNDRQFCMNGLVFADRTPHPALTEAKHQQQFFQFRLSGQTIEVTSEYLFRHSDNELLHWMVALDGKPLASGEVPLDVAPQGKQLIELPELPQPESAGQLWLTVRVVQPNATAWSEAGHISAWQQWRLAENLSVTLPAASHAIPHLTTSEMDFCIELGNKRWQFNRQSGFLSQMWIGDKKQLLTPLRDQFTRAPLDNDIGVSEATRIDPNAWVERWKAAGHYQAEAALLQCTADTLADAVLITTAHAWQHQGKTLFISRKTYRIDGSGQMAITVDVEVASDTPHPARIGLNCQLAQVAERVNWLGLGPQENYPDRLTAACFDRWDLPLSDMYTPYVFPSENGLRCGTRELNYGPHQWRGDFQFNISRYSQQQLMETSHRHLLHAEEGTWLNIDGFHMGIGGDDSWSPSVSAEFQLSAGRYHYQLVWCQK
Chain of Cytochrome P450 2C9 (P11712 whole entry): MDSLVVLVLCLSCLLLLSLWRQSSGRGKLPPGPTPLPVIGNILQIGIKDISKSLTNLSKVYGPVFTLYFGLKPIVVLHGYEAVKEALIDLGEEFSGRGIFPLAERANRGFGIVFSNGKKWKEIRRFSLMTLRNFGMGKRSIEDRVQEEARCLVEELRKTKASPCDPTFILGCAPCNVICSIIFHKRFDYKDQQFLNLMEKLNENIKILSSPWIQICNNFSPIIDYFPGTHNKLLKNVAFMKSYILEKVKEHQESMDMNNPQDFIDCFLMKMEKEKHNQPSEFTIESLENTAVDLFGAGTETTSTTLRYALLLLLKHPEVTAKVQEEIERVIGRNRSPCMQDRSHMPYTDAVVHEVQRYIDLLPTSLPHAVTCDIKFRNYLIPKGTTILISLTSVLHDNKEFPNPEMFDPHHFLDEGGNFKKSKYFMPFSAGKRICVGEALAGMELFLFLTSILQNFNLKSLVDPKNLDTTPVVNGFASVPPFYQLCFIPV
Chain of DNA damage-inducible transcript 3 protein (P35639 whole entry): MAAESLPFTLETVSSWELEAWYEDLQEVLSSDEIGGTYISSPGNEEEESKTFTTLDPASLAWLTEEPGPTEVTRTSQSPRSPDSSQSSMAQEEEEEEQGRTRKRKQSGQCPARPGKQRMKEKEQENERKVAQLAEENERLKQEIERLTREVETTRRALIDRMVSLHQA

Consider `CCc1ccc(C(=O)OCC(=O)c2c(N)n(CC(C)C)c(=O)n(C)c2=O)cc1`, for which the EC50 was 12.4 µM (active) in experiment [1] and > 20 µM (inactive) in experiment [4]. Besides, the IC50 in experiment [2] is 8.39 µM (active); in experiment [3] it was 13.8 µM (active); in [5], 15.6 µM (inactive); in experiment [6], > 20 µM (inactive); in [7] it was 2.96 µM (not active).

Regarding `CC(=O)Nc1ccc2nc3ccccc3nc2c1`, the IC50 is 14.8 µM (not active) in experiment [8], 5.86 µM (active) in experiment [9], > 66 µM (inactive) in experiment [10] and 44.9 µM (inactive) in experiment [11].

Turning to `Cc1nc2ccc(NS(=O)(=O)c3ccc(C)c(C)c3)cc2s1`, the EC50 in [1] is 3.65 µM (active); in experiment [4], 9.53 µM (active); in [13], > 53 µM (inactive). The IC50 is 10.9 µM (active) in experiment [2]; > 20 µM (inactive) in experiment [3]; 10.4 µM (inactive) in experiment [5]; > 20 µM (inactive) in [6]; > 47.1 µM (inactive) in experiment [12].

As to `O=C(C#Cc1ccccc1)c1ccc([N+](=O)[O-])cc1`, the values for the IC50 in experiment [14] and in experiment [16] were 9.68 µM (active) and 16.3 µM, respectively. Also, the EC50 in experiment [15] was > 31.5 µM (inactive). The AC50 (as a rule, the concentration at which the activity in the assay is half-maximal) in experiment [17] is 1.38 µM (active).

As to `Cc1ccccc1NC(=N)Nc1ccccc1C`, the IC50 in experiment [8] was 8.31 µM (active); in experiment [9], 5.2 µM (active); in [10] it was > 66 µM (inactive); in experiment [11], 19.8 µM (active).

As to `Cc1ccc(-c2nn(C)c(=O)c3ccccc23)cc1CNC(=O)Cn1nc(-c2ccccc2)c2ccccc2c1=O`, the “Absolute IC50 (CHOP)” value in [18] is 10 µM. Moreover, the “Absolute IC50 (XBP1)” value in experiment [19] stood at 10 µM. Besides, the AC50 was 31.6 µM (inconclusive) in [20] and 11.2 µM (inconclusive) in [21].

On to `C(=N\Nc1ncnc2sc3c(c12)CCC3)/c1cccs1`, for which the EC50 was 15.8 µM (active) in experiment [22], > 150 µM (not active) in experiment [23] and 19.5 µM (active) in experiment [25]. Further, in experiment [24], the CC50 was 15.7 µM (active). In addition, the figures for the AC50 in experiment [26] and in experiment [27] were 5.38 µM (active) and 5.3 µM (active), respectively. The “Absolute IC50 (XBP1)” value in [19] came out at 10 µM.

Values taken from ChEMBL document CHEMBL1201862, “PubChem BioAssay data set” (2004).
